Reference: patent publication US6949516B2, “Dipeptide apoptosis inhibitors and the use thereof” (Cytovia, Inc., priority 1997, dated 2005)

Key:
[1] = target: T1, Caspase-7 (Homo sapiens, UniProt P55210); assay: Recombinant caspase assay with Ac-DEVD-AMC, caspase-7; type: biochemical; details: 10 μM Ac-DEVD-AMC, 30 minutes at 37° C.
T1 construct: purchased PharMington (PharMingen, a Becton division company, San Diego, Calif.)
T1 sequence (P55210 24-198 limits assumed): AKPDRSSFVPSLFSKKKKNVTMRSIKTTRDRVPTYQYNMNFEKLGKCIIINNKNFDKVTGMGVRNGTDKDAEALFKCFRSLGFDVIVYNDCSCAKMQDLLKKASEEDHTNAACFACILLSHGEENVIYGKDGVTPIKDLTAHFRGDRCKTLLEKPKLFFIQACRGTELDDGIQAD
Procedure: The inhibitory activity of Cbz-Val-Asp-CH2F in recombinant caspase 3, 6, 7 and 8 obtained from PharMington (a Becton division company, San Diego, Calif.) were measured using Ac-DEVD-AMC (SEQ ID NO:1). The amount of each enzyme per assay was as following: 1 ng caspase3, 15 ng caspase6, 2 ng caspase7 and 60 ng caspase8. The enzyme reaction was conducted in 96-well plate using a caspase buffer (20 mM PIPES, 100 mM NaCl, 10 mM DTT, 1 mM EDTA, 0.1% CHAPS and 10% sucrose, pH 7.2) and the reaction was initiated by adding 10 μM Ac-DEVD-AMC (SEQ ID NO:1) (purchased from Quality Controlled Biochemicals, Inc. Hopkinton, Mass.). Twelve concentrations of Cbz-Val-Asp-CH2F ranged from 30 μM to […] were tested after incubation of the compound with recombinant caspases for 30 minutes at 37° C. […] The data was analyzed using GraphPrism software.

[2] = system: HeLa cells; assay: Cell death assay with HeLa cells, qualitative (phase contrast microscopy), TNF-α/CHX challenge; type: cell-based; details: for cytoprotection of HeLa cells from apoptotic effects of TNF-α and CHX (microscopy): 24 hour incubation
Procedure: (§1) The cytoprotective properties of Cbz-Val-Asp(OMe)CH2F were tested using HeLa cells challenged with tumor necrosis factor-alpha (TNF-α) and cycloheximide (CHX). This is a well-characterized cell culture model of apoptosis which is commonly used to analyze anti-apoptotic agents. Two types of experiments were performed: a qualitative assessment of cell death by visualization of the cells using phase contrast microscopy; and a quantitative assessment of cell death using the fluorescent dye calcein AM.
For photomicroscopy, HeLa cells are seeded in 12-well multidishes at a density of 100,000 cells per well in Minimal Essential Medium containing 2 mM glutamine and 10% fetal bovine serum. 24 hours later the plating medium is removed and fresh medium is added containing the cytoprotective test compound at various concentrations. The cells are pre-incubated with test compound for 2 hours at 37° C. in a CO2 incubator and then TNF-α and CHX are added at final concentrations of 25 ng/mL and 30 μg/mL, respectively. After a 24 hour incubation period, the cells are examined visually for evidence of cell death based on cell shape and degree of adherence. Cells are considered dead if they have become rounded up and phase bright and have detached from the substratum. Cells are considered alive if they have retained their normal morphology and remain attached to the substratum.
All of these compounds are the methyl ester derivatives. […] At 50 μM, the related peptides BOC-Asp(OMe)-CH2F (FIG. 1C) and Cbz-Glu(OMe)-Val-Asp(OMe)-CH2F (FIG. 1E) are also protective.

[3] = system: HeLa cells; assay: Cell death assay with HeLa cells, quantitative (calcein AM), TNF-α/CHX challenge; type: cell-based
Procedure: as §1
For quantitative assays, the degree of cell survival in the presence of test compounds is analyzed quantitatively using the indicator dye calcein AM. This dye is taken up and converted to a fluorescent derivative by living cells; the amount of activated dye in each well can then be assayed in a fluorometric plate reader and the degree of fluorescence is used as a measure of the number of surviving cells. For these assays, HeLa cells are seeded in 48-well plates at a density of 25,000 cells per well in 0.4 mL of Minimal Essential Medium containing 2 mM glutamine and 10% fetal bovine serum. 24 hours later the plating medium is removed and 0.5 mL of fresh medium containing test compound at various concentrations is added. The cells are pre-incubated with test compound for 2 hours at 37° C. in a CO2 incubator and then TNF-α and CHX are added at final concentrations of 25 ng/mL and 30 μg/mL, respectively. After a 24 hour incubation period, the cultures are washed twice with serum-free, phenol red-free Ham's F12 to remove dead cells and 125 μL of Ham's F12 containing 8 μM calcein AM is added. […] The data are expressed as “Percent Control,” which is calculated by the following equation: Percent Control=(Calcein AM Signal in the Presence of Test Compound+TNF-α and CHX/(Calcein AM Signal in the Presence of CHX Only)×100% The use of CHX-treated cultures as controls, rather than untreated cultures, allows one to correct for the cytostatic effects of CHX. However, because CHX by itself is also a mild inducer of apoptosis in HeLa cells, strong anti-apoptotic drugs will give a Percent Control value greater than 100%.
Quantitative experiments using calcein AM, as described above, corroborate the results obtained by microscopic examination. FIGS. 4 and 5 illustrate the results of two such experiments where the cytoprotective properties of Cbz-Val-Asp(OMe)-CH2F (a) were compared to BOC-Asp(OMe)-CH2F (b) (FIG. 5) and Cbz-Asp(OMe)-Glu(OMe)-Val-Asp(OMe)-CH2F (SEQ ID NO:1) (c) (FIG. 4) at three concentrations (0.5, 5 and 50 μM). […] By contrast, Cbz-Val-Asp(OMe)-CH2F (a) is as effective a cytoprotectant at 0.5 μM as Cbz-Asp(OMe)-Glu(OMe)-Val-Asp(OMe)-CH2F (SEQ ID NO:1) […] is at 50 μM (FIG. 4).
In order to determine the effect of Cbz-Val-Asp(OMe)-CH2F at low doses, HeLa cells were treated with a range of concentrations from 0.05 μM to 1 μM.

Row | SMILES | IC50 [1] | cytoprotection of HeLa cells from apoptotic effects of TNF-α and CHX (microscopy) ([2]; 0.5 μM) | cytoprotection of HeLa cells from apoptotic effects of TNF-α and CHX (microscopy) ([2]; 5 μM) | cytoprotection of HeLa cells from apoptotic effects of TNF-α and CHX (microscopy) ([2]; 50 μM) | protective concentration, fold lower than other putative anti-apoptotic agents ([2]; HeLa cells, TNF-α/CHX-induced apoptosis) | protection of HeLa cells from TNF-α/CHX (calcein AM) ([3]; 0.5 μM) | concentration giving significant protection of HeLa cells from TNF-α/CHX ([3]; range 0.05 μM to 1 μM tested)
1 | CC(C)[C@H](NC(=O)OCc1ccccc1)C(=O)NC(CC(=O)O)C(=O)CF (stereo partly drawn) [Cbz-Val-Asp-CH2F, Z-Val-Asp-fmk] | 6.8 nM |  |  |  |  |  | 
2 | COC(=O)CC(NC(=O)C(NC(=O)OCc1ccccc1)C(C)C)C(=O)CF (stereo not drawn) [Cbz-Val-Asp(OMe)-CH2F, Z-Val-Asp-fmk Methyl Ester] |  | still an effective cytoprotectant | surprisingly strong cytoprotective action | completely protects | 10 to 100 fold | highly active | ≤ 0.25 µM
